Test results as given in patent US5283321A (priority 1986, dated 1994).
Peptide text beside a SMILES is read from it.

Tests used:
[1] = system: antibodies in rabbit sera; test: ELISA, reaction between the synthetic peptide (BSA-coupled coating antigen) and antibodies in rabbit sera; format: binding; conditions: goat anti-rabbit conjugate 1/500, plates read after 3 min, peptide coupled to BSA as coating antigen
[2] = system: antibodies in human sera; test: ELISA, reaction between the synthetic peptide (BSA-coupled coating antigen) and antibodies in human sera; format: binding; conditions: swine anti-human conjugate 1/100, plates read after 20 min, peptide coupled to BSA as coating antigen
[3] = system: alkaline phosphatase goat anti-rabbit Ig conjugate; test: ELISA, reaction between the synthetic peptide and conjugate only (goat anti-rabbit); format: binding; conditions: no serum, plates read after 5 min
Experimental: (§1) The above synthesized peptide was coupled to a carrier, i.e. bovine serum albumin (BSA) in the following manner to form a peptide antigen (coating antigen) which was used in ELISA.
(§2) Fractions containing coupled material were pooled and the pooled material was used in ELISA as coating antigen and was added directly, without any previous dilution, to the microplate.
(§3) PERFORMANCE 1. Coating of microplates. Microplates were incubated with 0.1 ml of antigen in PBS at room temperature (20°-25° C.) over night.
(§4) 2. Incubation with bovine serum albumin (BSA) and serum. The plates were washed four times and then incubated with 0.1 ml of 1% (w/v) BSA in PBS at 37° C. for one hour. After washing, 0.1 ml of serum appropriately diluted in incubation buffer, was added to the wells and the plate(s) was incubated at room temperature for one hour.
(§5) 3. Incubation with conjugate. After washing, 0.1 ml of conjugate appropiately diluted in incubation buffer, was added to the wells and the plate(s) was incubated at room temperature for two hours.
(§6) 4. After washing, 0.1 ml of the enzyme substrate solution was added to the wells. The plates were kept at room temperature and the absorbance at 405 nm was read after the time indicated below. […]
(§7) The plates were read at times indicated below in an automated ELISA-reader (Titertek, Multiscan). […]

[4] = system: alkaline phosphatase swine anti-human IgG conjugate; test: ELISA, reaction between the synthetic peptide and conjugate only (swine anti-human); format: binding; conditions: no serum, plates read after 13 min
Experimental: as §1, §2, §3, §4, §5, §6, §7

[5] = system: alkaline phosphatase; test: Similar ELISA experiment where enzyme alone was used; format: binding; conditions: enzyme alone instead of conjugate
Description: That the synthesized peptide reacted with and bound to the respective conjugate was further shown by the ability of the conjugates alone to bind the peptide.

[6] = system: spleen cells from a NMRI mouse; test: LAF assay, lymphocyte or thymocyte proliferating activity (3H-thymidine incorporation); format: cell-based; conditions: 48 h + 16 h with 3H-thymidine
[7] = system: purified pertussis toxin; test: Immunization of mice with the synthetic peptide, ELISA of sera against native pertussis toxin; format: in vivo, mice (NMRI); conditions: sera two months after third dose
[8] = system: purified pertussis toxin; test: Challenge of immunized mice with purified pertussis toxin, survival; format: in vivo, mice (NMRI); conditions: challenge 20 μg/mouse=5×LD50

CC(C)[C@H](NC(=O)[C@H](CO)NC(=O)[C@H](CCCNC(=N)N)NC(=O)[C@H](CCCNC(=N)N)NC(=O)[C@H](CO)NC(=O)[C@@H](NC(=O)[C@H](Cc1ccc(O)cc1)NC(=O)[C@@H]1CCCN1C(=O)[C@H](CC(N)=O)NC(=O)[C@@H]1CCCN1C(=O)[C@H](CC(N)=O)NC(=O)[C@H](C)NC(=O)[C@H](CCCNC(=N)N)NC(=O)[C@@H](NC(=O)[C@H](CCC(N)=O)NC(=O)[C@@H](N)CCCCN)[C@@H](C)O)[C@@H](C)O)C(=O)N[C@@H](C)C(=O)N[C@@H](CO)C(=O)O [The synthetic peptide, H--Lys--Gln--Thr--Arg--Ala--Asn--Pro--Asn--Pro--Tyr--Thr----Ser--Arg--Arg--Ser--Val--Ala--Ser--OH] (H-KQTRANPNPYTSRRSVAS-OH)
Absorbance at 405 nm ([1]; serum Rabbit 1 diluted 1/500): 1.21 | Absorbance at 405 nm ([1]; serum Rabbit 2 diluted 1/500): 1.05 | Absorbance at 405 nm ([2]; serum Human 1 (one individual) diluted 1/500): 1.11 | Absorbance at 405 nm ([2]; serum Human 2 (pool of human sera) diluted 1/500): 1.26 | Absorbance at 405 nm [3]: 1.23 | Absorbance at 405 nm [4]: 0.84 | Binding of the peptide to alkaline phosphatase enzyme alone [5]: no binding was observed | cpm (range of triplicates) ([6]; 1 μg per well): 3000-4200 cpm | cpm (range of triplicates) ([6]; 10 μg per well): 7000-8500 cpm | Mean Titre ([7]; endpoint titre against pertussis toxin, cut off absorbance 0.1, 17 mice): 2334 | Titre Range ([7]; endpoint titre against pertussis toxin, cut off absorbance 0.1): 320-40960 | Responders ([7]; of 17 mice, s.c. 3×0.5 ml BSA-coupled peptide antigen on aluminium hydroxide, one month apart): 15 | Days of survival (mean) ([8]; immunized mice with endpoint titre 80-40960 (17 mice)): 3.765 days | Days of survival (mean) ([8]; immunized mice with endpoint titre 320-40960 (15 mice)): 4.000 days | Days of survival (mean) ([8]; immunized mice with endpoint titre 640-40960 (14 mice)): 3.929 days | Days of survival (mean) ([8]; immunized mice with endpoint titre 1280-40960 (10 mice)): 4.600 days | Days of survival (mean) ([8]; immunized mice with endpoint titre 2560-40960 (8 mice)): 4.875 days | Days of survival (mean) ([8]; immunized mice with endpoint titre 5120-40960 (6 mice)): 5.333 days | Days of survival (mean) ([8]; immunized mice with endpoint titre 10240-40960 (3 mice)): 6.333 days

Phytohaemagglutinin [PHA]
cpm (range of triplicates) ([6]; 2.5 μg per well): 6700-8100 cpm | cpm (range of triplicates) ([6]; 5 μg per well): 9800-10400 cpm | cpm (range of triplicates) ([6]; 7 μg per well): 7000-8100 cpm
